{"source": "patent US10357539B2", "about": "“Use of peptides that block metadherin-SND1 interaction as treatment for cancer” (THE TRUSTEES OF PRINCETON UNIVERSITY, priority 2014, dated 2019)", "key": {"SND1": {"tested_on": "SND1", "assay": "SND1 protein levels in MECs treated with CPT (western blot)", "format": "cell-based, mouse", "details": "PyMT;Mtdh+/+ pMECs, CPT at indicated concentrations for 36 hours", "procedure": "(§1) FIGS. 9A-I illustrates that MTDH confers survival advantage by interacting with and stabilizing pro-survival protein SND1 under stress. (FIG. 9A) Quantification of cleaved caspase 3-positive MECs from normal or MMTV-PyMT preneoplastic glands (n>3) of WT (left column) or KO females (right column). (FIG. 9B) The effect of CPT on the apoptosis of PyMT;Mtdh−/− pMECs reconstituted with indicated Mtdh constructs (left column: VEC; middle column: WT; right column: W391D) was determined by PI and Hoechst staining. (FIG. 9C) The effect of CPT on the apoptosis of control (left column) or SND1-KD (right column) PyMT;Mtdh+/+ pMECs. (FIG. 9D) Protein levels of SND1 and β-actin (loading control) in control or MTDH-KD PyMT;Mtdh+/+ pMECs treated with CPT at indicated concentrations for 36 hours. Degradation curve (right) represents the average of 3 independent experiments. (FIG. 9E) Western blotting of SND1, MTDH and β-actin (loading control) in PyMT;Mtdh−/− MECs reconstituted with indicated constructs after CPT treatment for 48 hours. Degradation curves (right) represent average of 3 independent experiments. […] Z scores were calculated based on gene expression changes and gene functions as specified by the ingenuity knowledge base. […]"}, "PyMT;Mtdh−/− pMECs": {"tested_on": "PyMT;Mtdh−/− pMECs", "assay": "CPT-induced apoptosis of MECs (PI and Hoechst staining)", "format": "cell-based, mouse", "details": "CPT to induce DNA replication stress", "procedure": "as §1"}, "MTDH": {"target": "T1, MTDH (Mus musculus, UniProt Q80WJ7)", "T1 construct": "endogenous in cells; host or cells: SND1-KD PyMT;Mtdh+/+ mouse mammary tumor cells", "T1 sequence (Q80WJ7 1-579)": "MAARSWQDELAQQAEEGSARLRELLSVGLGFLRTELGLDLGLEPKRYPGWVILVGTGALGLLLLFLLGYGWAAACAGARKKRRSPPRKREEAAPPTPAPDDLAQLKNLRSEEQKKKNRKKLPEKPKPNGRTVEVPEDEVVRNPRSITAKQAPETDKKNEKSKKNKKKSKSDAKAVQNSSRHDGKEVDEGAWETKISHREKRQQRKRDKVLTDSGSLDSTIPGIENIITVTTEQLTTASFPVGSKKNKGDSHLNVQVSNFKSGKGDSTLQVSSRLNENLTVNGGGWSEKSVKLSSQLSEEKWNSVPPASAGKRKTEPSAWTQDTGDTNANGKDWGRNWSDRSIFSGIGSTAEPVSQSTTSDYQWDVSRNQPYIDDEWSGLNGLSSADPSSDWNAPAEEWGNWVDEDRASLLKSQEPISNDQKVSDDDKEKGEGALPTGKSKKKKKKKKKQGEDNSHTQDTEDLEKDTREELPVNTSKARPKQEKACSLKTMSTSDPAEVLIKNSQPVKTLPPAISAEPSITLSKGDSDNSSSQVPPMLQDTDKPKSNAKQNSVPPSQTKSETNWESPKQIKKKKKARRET", "assay": "Anti-MTDH immunoprecipitation from SND1-KD PyMT;Mtdh+/+ tumor cells reconstituted with murine SND1", "format": "cell-based", "details": "shRNA-resistant construct in SND1-KD PyMT;Mtdh+/+ tumor cells", "procedure": "(FIG. 24A) Lysates from SND1-KD PyMT;Mtdh+/+ tumor cells reconstituted with vector control, WT or mutant shRNA-resistant murine SND1 were immunoprecipitated with anti-MTDH antibody and immunoblotted for indicated proteins. (FIG. 24B) Mammosphere assays were performed with SND1-KD PyMT;Mtdh+/+ tumor cells reconstituted with vector control or indicated SND1 constructs. (FIG. 24C, FIG. 24D) Mammary tumor incidence (FIG. 24C) and tumor growth curve (FIG. 24D) after orthotopic transplantations of SND1-KD PyMT;Mtdh+/+ tumor cells reconstituted with indicated constructs. Statistics: (FIG. 24B, FIG. 24D) Student's t-test. Data represent mean±SEM. (FIG. 24C) Chi-square test. […], *p<0.01, *p<0.05.\nImmunoprecipitation and western blot: For in vivo immunoprecipitation (IP) experiments, cultured cells were washed in cold PBS and lysed in lysis buffer (20 mM Tris pH 7.4, 0.15 M NaCl, 1 mM EDTA, 1 mM EGTA, 1% Tx-100, 0.0025 M Na2P2O7, 1 mM β-glycerolphosphate, 1 mM Na3VO4, and 1 mM NaF) with an EDTA-free protease inhibitor mixture (Roche Applied Science) and PMSF. Cell lysates were then incubated on ice for 10 min, centrifuged, and precleared by incubating with protein A/G beads (Santa Cruz Biotechnology) for 1 h at 4° C. For IP bead preparation, 30 μl of protein A/G beads were incubated with 5 μg of antibodies for 2 h at 4° C. […]"}}}
{"molecule": "CC[C@@]1(O)C(=O)OCc2c1cc1n(c2=O)Cc2cc3ccccc3nc2-1", "note": "[CPT, camptothecin]", "values": [{"measurement": "SND1 protein levels", "setting": "SND1", "result": "drug dosage-dependent decrease of SND1 protein levels"}, {"measurement": "apoptosis of MECs", "setting": "PyMT;Mtdh−/− pMECs", "result": "induced apoptosis of MECs in a dosage-dependent manner"}]}
{"molecule": "murine SND1 R255E: shRNA-resistant murine SND1 mutant R255E (protein, UniProt Q78PY7 2-910, looked up, variant R255E, shRNA-resistant) Staphylococcal nuclease …: ASSAQSSGSSGGPAVPTVQRGIVKMVLSGCAIIVRGQPRGGPPPERQINLSNIRAGNLARRAAATQPDGKDTPDEPWAFPAREFLRKKLIGKEVCFTIENKTPQGREYGMIYLGKDTNGENIAESLVAEGLATRREGMRANNPEQNRLSECEEQAKASKKGMWSEGNGSHTIRDLKYTIENPRHFVDSHHQKPVNAIIEHVRDGSVVRALLLPGHHLVTVMLSGIKCPTFRRETDGSETPEPFAAEAKFFTESELLQRDVQIILESCHNQNLLGTILHPNGNITELLLKEGFARCVDWSIAVYTRGAEKLRAAERFAKERRLRIWRDYVPPTANLDQKDKQFVAKVMQVLNADAIVVKLNSGDYKTIHLSSIRPPRLEGDNIQDKNKKLRPLYDIPYMFEAREFLRKKLIGKKVNVTVDYIRPASPATETVPAFSERTCATVTIGGINIAEALVSKGLATVIRYRQDDDQRSSHYDELLAAEARAIKNGKGLHSKKEVPIHRVADISGDTQKAKQFLPFLQRAGRSEAVVEYVFSGSRLKLYLPKETCLITFLLAGIECPRGARNLPGLVQEGEPFSEEATLFTKELVLQREVEVEVESMDKAGNFIGWLHMDGANLSVLLVEQALSKVHFTAERSAYYKPLLSAEEAAKQRKEKVWAHYEERPVEEVMPVLEEKERSASYKPVFVTEITDDLHFYVQDVETGTQLEKLMENMRNDISSHPPVEGSYAPRRGEFCIAKFVDGEWYRARVEKVESPAKVHVFYIDYGNREILPSTRLGTLPPAFSTRVLPAQATEYAFAFIQVPQDEDARTDAVDSVVRDIQNTQCLLNVEHLSASCPHVTLQFADSKGDVGLGLVKEGLVMVEVRKEKQFQKVITEYLNAQESAKSARLNLWRYGDFRADDADEFGYSR", "values": [{"measurement": "interaction of murine SND1 mutants with MTDH", "setting": "MTDH", "result": "nearly completely abolished the interaction with MTDH"}]}
